We go through three compounds from US20220009920A1 (GB005, Inc., priority 2020, published 2022).

What all share (experiment): Large panel kinase profiling
Common to all, as to assay type: biochemical
Common to all, as to details: 1 μM test article, 1 mM ATP

The target in one assay is T1, CAMKK1 (Homo sapiens, UniProt Q8N5S9).
T1 construct: AssayQuant Technologies, Inc. (ran the panel)
The method, boiled down:
(§1)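 At 30° C., kinases turned over a CSox-Sensor peptide substrate with 1 mM ATP while 1 μM test article was present. Progress was followed by kinetic fluorescence readings.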

A further assay deals with T2, RPS6KA3/RSK2 (Homo sapiens, UniProt P51812).
T2 construct: AssayQuant Technologies, Inc. (contract assay)
The essentials:
as §1

The target in the next assay is PRKCG/PKCG (Homo sapiens, UniProt P05129). The method, boiled down: as §1
The target in the next assay is PRKDC/DNA-PK (Homo sapiens, UniProt P78527). The method, boiled down: as §1
For the next assay, the target named is T3, CSF1R/FMS (Homo sapiens, UniProt P07333).
T3 construct: AssayQuant Technologies, Inc. (service laboratory)
The method, boiled down:
as §1

The next assay deals with T4, AXL (Homo sapiens, UniProt P30530).
T4 sequence (P30530 26-894): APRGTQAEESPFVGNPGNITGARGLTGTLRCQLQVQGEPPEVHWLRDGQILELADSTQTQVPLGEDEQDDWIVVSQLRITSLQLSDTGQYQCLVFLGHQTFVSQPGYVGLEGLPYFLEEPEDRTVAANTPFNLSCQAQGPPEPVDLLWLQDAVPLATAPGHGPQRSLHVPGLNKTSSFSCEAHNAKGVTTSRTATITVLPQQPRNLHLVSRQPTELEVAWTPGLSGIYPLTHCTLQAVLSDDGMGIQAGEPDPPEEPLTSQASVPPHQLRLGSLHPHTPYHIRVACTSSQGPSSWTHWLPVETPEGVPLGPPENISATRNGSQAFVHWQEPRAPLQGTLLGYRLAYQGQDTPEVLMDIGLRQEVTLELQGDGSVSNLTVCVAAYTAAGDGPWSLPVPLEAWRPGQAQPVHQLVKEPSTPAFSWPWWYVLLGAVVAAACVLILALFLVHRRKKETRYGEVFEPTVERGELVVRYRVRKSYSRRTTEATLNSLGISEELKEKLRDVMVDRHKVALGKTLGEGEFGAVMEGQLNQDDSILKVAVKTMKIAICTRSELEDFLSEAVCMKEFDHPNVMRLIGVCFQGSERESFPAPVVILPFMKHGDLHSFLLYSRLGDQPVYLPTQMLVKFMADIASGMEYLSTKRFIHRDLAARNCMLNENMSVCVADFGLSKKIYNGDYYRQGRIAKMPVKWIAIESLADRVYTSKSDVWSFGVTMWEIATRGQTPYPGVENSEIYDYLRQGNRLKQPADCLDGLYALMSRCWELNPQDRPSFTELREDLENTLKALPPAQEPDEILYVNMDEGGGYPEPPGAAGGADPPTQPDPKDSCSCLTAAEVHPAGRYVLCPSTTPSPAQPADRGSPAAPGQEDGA
The essentials: as §1

In a further assay the target is T5, EPHA3 (Homo sapiens, UniProt P29320).
T5 sequence (P29320 21-983): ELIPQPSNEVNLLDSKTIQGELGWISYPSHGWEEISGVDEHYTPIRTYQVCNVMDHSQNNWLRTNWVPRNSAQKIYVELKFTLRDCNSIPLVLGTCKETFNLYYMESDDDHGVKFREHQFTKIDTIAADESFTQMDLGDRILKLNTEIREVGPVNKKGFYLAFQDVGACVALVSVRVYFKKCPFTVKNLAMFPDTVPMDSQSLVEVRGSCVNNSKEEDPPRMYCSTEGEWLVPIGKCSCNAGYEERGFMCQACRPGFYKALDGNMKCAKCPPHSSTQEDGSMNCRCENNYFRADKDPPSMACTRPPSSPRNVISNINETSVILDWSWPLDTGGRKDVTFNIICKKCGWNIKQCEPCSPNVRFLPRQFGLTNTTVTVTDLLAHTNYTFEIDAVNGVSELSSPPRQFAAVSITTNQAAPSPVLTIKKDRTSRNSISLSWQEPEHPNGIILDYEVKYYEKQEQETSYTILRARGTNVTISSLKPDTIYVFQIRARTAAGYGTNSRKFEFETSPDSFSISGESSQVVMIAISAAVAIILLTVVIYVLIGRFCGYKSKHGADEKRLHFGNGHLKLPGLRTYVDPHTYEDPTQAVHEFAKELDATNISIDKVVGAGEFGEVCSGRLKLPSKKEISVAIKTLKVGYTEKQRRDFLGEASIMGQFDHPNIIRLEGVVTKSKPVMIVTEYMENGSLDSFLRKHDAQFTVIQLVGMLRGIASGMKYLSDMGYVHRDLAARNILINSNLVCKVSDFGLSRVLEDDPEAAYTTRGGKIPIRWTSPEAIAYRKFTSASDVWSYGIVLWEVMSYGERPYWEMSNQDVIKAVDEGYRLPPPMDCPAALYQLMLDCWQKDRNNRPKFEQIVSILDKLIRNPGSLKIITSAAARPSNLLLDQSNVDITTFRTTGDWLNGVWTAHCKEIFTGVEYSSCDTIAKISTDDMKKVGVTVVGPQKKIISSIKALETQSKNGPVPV
The essentials: as §1

In another assay the target is MAP3K1 (Homo sapiens, UniProt Q13233). The method, boiled down: as §1
For the next assay, the target named is BUB1 (Homo sapiens, UniProt O43683). The essentials:
as §1

Another assay concerns the target T6, SK2 (Homo sapiens, UniProt Q9H0K1).
T6 construct: AssayQuant Technologies, Inc. (contract assay)
The method, boiled down: as §1

Chain of MAP3K1 (Q13233 whole entry, species assumed): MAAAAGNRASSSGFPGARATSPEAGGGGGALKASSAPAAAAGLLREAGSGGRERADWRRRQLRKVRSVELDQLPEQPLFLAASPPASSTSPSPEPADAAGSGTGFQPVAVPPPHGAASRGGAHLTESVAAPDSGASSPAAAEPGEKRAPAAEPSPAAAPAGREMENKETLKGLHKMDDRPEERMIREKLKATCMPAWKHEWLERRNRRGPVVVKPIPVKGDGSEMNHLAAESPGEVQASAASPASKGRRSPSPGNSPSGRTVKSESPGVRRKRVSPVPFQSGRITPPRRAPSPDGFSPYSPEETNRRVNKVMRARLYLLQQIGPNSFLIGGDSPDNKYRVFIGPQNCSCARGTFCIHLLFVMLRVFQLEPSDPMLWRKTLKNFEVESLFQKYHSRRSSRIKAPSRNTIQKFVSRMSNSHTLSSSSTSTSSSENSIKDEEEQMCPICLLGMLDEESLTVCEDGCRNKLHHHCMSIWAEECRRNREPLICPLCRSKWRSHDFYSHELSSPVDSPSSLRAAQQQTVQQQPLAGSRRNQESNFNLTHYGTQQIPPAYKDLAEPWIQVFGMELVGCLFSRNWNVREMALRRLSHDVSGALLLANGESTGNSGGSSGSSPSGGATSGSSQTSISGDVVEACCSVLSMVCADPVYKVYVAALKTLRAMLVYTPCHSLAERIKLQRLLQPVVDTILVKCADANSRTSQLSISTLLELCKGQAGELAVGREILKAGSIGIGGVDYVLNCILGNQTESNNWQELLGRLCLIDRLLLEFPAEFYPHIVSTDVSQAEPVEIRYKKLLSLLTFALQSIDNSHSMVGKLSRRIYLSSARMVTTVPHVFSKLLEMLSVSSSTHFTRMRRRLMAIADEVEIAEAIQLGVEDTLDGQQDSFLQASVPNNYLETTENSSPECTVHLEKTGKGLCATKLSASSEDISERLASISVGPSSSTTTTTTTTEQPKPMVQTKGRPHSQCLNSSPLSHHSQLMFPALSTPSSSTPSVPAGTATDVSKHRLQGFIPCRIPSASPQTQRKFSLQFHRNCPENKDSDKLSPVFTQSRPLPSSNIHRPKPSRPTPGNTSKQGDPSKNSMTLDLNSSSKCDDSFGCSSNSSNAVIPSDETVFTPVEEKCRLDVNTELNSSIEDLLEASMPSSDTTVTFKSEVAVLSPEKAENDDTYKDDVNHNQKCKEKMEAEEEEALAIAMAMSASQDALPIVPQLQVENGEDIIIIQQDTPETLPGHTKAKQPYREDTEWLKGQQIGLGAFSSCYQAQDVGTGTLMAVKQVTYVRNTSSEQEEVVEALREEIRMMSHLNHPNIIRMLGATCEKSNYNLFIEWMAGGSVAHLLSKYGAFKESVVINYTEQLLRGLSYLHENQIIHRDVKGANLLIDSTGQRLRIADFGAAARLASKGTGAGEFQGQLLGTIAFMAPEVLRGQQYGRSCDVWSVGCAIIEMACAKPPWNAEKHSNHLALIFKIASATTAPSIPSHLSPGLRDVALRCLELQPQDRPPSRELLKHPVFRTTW
T2 sequence (P51812 whole entry): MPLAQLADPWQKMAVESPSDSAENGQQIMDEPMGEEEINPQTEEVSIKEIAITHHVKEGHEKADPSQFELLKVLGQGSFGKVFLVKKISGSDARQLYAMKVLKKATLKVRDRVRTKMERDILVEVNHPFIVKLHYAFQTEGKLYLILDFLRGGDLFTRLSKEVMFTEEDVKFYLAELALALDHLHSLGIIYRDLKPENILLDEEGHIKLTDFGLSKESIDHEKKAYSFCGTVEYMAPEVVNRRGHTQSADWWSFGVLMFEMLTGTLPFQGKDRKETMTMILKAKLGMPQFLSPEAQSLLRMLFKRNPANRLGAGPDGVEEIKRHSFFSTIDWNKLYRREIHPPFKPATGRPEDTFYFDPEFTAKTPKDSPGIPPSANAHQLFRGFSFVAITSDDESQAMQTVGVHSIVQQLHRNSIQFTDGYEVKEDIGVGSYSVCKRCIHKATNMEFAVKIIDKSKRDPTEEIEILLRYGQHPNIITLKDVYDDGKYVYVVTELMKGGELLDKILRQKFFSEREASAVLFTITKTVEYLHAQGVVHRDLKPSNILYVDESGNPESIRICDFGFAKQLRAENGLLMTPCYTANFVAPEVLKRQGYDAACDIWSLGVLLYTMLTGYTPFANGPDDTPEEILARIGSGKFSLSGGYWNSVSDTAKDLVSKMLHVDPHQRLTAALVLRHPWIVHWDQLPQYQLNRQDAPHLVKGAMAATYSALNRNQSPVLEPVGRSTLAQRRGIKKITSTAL
Chain of BUB1 (O43683 whole entry): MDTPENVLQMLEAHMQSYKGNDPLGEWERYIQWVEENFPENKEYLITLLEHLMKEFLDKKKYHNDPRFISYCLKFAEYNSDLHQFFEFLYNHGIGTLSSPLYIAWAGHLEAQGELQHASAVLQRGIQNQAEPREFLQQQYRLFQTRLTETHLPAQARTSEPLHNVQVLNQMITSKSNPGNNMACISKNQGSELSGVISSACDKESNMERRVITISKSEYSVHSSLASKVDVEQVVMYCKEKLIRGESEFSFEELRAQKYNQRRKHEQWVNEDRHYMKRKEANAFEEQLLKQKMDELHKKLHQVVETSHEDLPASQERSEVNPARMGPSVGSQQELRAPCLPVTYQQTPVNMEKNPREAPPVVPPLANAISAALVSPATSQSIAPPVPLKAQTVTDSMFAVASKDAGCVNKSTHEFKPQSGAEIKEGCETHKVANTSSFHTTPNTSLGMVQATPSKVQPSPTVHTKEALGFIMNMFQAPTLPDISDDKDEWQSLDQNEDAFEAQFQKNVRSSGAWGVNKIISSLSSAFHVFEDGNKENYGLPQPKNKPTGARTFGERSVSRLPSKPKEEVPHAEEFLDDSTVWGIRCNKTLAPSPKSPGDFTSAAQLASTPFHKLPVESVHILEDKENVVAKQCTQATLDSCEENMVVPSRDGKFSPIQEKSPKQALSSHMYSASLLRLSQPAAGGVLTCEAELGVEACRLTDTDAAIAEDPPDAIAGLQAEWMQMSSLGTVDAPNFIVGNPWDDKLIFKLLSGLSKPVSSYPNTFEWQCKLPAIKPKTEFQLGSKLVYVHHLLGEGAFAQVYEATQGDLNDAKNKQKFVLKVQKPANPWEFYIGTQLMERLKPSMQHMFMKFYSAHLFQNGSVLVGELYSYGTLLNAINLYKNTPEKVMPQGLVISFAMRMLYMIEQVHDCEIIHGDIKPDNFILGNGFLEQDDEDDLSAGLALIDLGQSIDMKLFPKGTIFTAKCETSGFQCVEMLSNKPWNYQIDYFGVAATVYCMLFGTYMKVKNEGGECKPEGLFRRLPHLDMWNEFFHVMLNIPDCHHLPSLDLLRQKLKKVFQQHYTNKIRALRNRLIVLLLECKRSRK
T1 sequence (Q8N5S9 whole entry, species assumed): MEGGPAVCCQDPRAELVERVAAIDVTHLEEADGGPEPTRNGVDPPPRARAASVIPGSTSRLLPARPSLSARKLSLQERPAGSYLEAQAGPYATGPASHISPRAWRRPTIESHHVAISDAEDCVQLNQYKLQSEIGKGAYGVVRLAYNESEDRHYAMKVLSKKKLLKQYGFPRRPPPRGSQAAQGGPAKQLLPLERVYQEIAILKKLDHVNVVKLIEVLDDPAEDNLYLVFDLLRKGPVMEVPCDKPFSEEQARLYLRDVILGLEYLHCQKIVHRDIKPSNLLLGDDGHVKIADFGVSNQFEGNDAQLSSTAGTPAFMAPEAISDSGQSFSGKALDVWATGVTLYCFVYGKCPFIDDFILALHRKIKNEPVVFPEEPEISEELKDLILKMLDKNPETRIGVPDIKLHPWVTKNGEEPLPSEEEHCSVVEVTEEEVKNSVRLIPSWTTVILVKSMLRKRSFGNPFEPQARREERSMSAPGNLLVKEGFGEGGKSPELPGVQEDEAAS

The term inhibition denotes the change of the read-out against control, counted positive when it falls. For `C=CC(=O)N1CCCC(c2c(F)cc(C(N)=O)c3[nH]c4c(c23)CCCCC4)C1` (single isomer, unassigned) [Compound 5-6], the inhibition at 1 µM is 22.2% against CAMKK1; 5.8% on RPS6KA3/RSK2; -7.3% against PRKCG/PKCG; -40.6% on PRKDC/DNA-PK; 21.3% against CSF1R/FMS; -20.3% at AXL. Besides, the inhibition at 1 µM against EPHA3 was 0.7%; on MAP3K1 it was 6.4%; at BUB1, 8.2%; at SK2, -0.1%.
On to `C=CC(=O)N1CCC[C@@H](c2c(F)cc(C(N)=O)c3[nH]c4c(c23)CC2(CC4)CC2)C1` [Compound 6-2, (S)-5-(1-acryloylpiperidin-3-yl)-6-fluoro-1,2,4,9-tetrahydrospiro[carbazole-3,1′-cyclopropane]-8-carboxamide], for which the inhibition at 1 µM against CAMKK1 is 5.7%; against RPS6KA3/RSK2, -34.6%; on PRKCG/PKCG it was 8.6%; on PRKDC/DNA-PK it was 35%; on CSF1R/FMS, 24.9%; against AXL, 1.5%. The inhibition at 1 µM against EPHA3 was 10.1%; against MAP3K1, -7.9%; against BUB1, -11.5%; against SK2, 7.7%.
For `C=CC(=O)N1CCC[C@@H](c2c(F)cc(C(N)=O)c3[nH]c4c(c23)CCC4)C1` [Compound 10-2, (S)-8-(1-acryloylpiperidin-3-yl)-7-fluoro-1,2,3,4-tetrahydrocyclo-penta[b]indole-5-carboxamide], the inhibition at 1 µM against CAMKK1 was 3.7%; at RPS6KA3/RSK2 it was -27.7%; against PRKCG/PKCG it was 1.3%; against PRKDC/DNA-PK it was 14.6%; at CSF1R/FMS, 20.2%; against AXL, -1.7%. The inhibition at 1 µM was 1.6% at EPHA3, 10.3% against MAP3K1, -2.3% against BUB1 and 23.9% on SK2.
